The supplement of paper PMC10307832

What was measured:
Assay in all cases: relative viability (nuclei count vs DMSO), 5 days (fraction); higher = more cells survive
GSK126 + Bortezomib = compound: CC[C@H](C)N1C=C(C2=C(C=C(C=C21)C3=CN=C(C=C3)N4CCNCC4)C(=O)NCC5=C(C=C(NC5=O)C)C)C [GSK126] + CC(C)C[C@H](NC(=O)[C@H](Cc1ccccc1)NC(=O)c1cnccn1)B(O)O [Bortezomib] (partner 0.002 µM)
Procedure, shortened: (§1)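 Lung cancer cell lines, seeded in 1536-well plates, were treated the following day by pin tool with a single drug or with five library-drug doses (not always all listed) in √10 steps on top of a fixed anchor-drug dose. Cells were fixed and nuclei stained in one step after 5 days, and nuclei were counted. Relative viability is the nuclei count for treated wells divided by that for vehicle wells, reported as medians of duplicate plates.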

MLN4924 + Crizotinib = compound: NS(=O)(=O)OC[C@@H]1C[C@@H](n2ccc3c(N[C@H]4CCc5ccccc54)ncnc32)C[C@@H]1O [MLN4924] + C[C@@H](Oc1cc(-c2cnn(C3CCNCC3)c2)cnc1N)c1c(Cl)ccc(F)c1Cl [Crizotinib] (partner 1 µM)
Procedure, shortened: as §1

MLN4924 + Foretinib = compound: NS(=O)(=O)OC[C@@H]1C[C@@H](n2ccc3c(N[C@H]4CCc5ccccc54)ncnc32)C[C@@H]1O [MLN4924] + COc1cc2c(Oc3ccc(NC(=O)C4(C(=O)Nc5ccc(F)cc5)CC4)cc3F)ccnc2cc1OCCCN1CCOCC1 [Foretinib] (partner 0.25 µM)
Procedure, shortened: as §1

MLN4924 + Lapatinib = compound: NS(=O)(=O)OC[C@@H]1C[C@@H](n2ccc3c(N[C@H]4CCc5ccccc54)ncnc32)C[C@@H]1O [MLN4924] + CS(=O)(=O)CCNCc1ccc(-c2ccc3ncnc(Nc4ccc(OCc5cccc(F)c5)c(Cl)c4)c3c2)o1 [Lapatinib] (partner 2 µM)
Procedure, shortened: as §1

Cell Line | relative viability (GSK126 + Bortezomib; first compound 0.08 µM) | relative viability (GSK126 + Bortezomib; first compound 0.253 µM) | relative viability (GSK126 + Bortezomib; first compound 0.8 µM) | relative viability (GSK126 + Bortezomib; first compound 2.53 µM) | relative viability (GSK126 + Bortezomib; first compound 8 µM) | relative viability (MLN4924 + Crizotinib; first compound 0.04 µM) | relative viability (MLN4924 + Crizotinib; first compound 0.1265 µM) | relative viability (MLN4924 + Crizotinib; first compound 0.4 µM) | relative viability (MLN4924 + Crizotinib; first compound 1.265 µM) | relative viability (MLN4924 + Crizotinib; first compound 4 µM) | relative viability (MLN4924 + Foretinib; first compound 0.04 µM) | relative viability (MLN4924 + Foretinib; first compound 0.1265 µM) | relative viability (MLN4924 + Foretinib; first compound 0.4 µM) | relative viability (MLN4924 + Foretinib; first compound 1.265 µM) | relative viability (MLN4924 + Foretinib; first compound 4 µM) | relative viability (MLN4924 + Lapatinib; first compound 0.04 µM) | relative viability (MLN4924 + Lapatinib; first compound 0.1265 µM) | relative viability (MLN4924 + Lapatinib; first compound 0.4 µM) | relative viability (MLN4924 + Lapatinib; first compound 1.265 µM) | relative viability (MLN4924 + Lapatinib; first compound 4 µM)
ChaGo-K-1 | 0.969 | 1.02 | 0.979 | 1.19 | 1.06 | 0.908 | 0.595 | 0.451 | 0.325 | 0.324 | 0.785 | 0.503 | 0.336 | 0.244 | 0.22 |  |  |  |  | 
SW 900 |  |  |  |  |  |  |  |  |  |  | 0.762 | 0.682 | 0.315 | 0.179 | 0.107 |  |  |  |  | 
NCI-H2342 |  |  |  |  |  |  |  |  |  |  | 1.17 | 1.06 | 1.24 | 0.76 | 0.472 |  |  |  |  | 
NCI-H441 | 0.445 | 0.452 | 0.419 | 0.507 | 0.519 | 0.866 | 0.693 | 0.361 | 0.158 | 0.169 | 0.923 | 0.79 | 0.515 | 0.238 | 0.183 |  |  |  |  | 
NCI-H3122 | 1.01 | 1.04 | 0.994 | 1.01 | 1.07 | 0.369 | 0.338 | 0.358 | 0.178 | 0.153 | 0.903 | 0.385 | 0.232 | 0.106 | 0.0762 | 0.991 | 0.629 | 0.293 | 0.177 | 0.206
HCC-78 | 0.464 | 0.466 | 0.374 | 0.562 | 0.389 | 0.394 | 0.451 | 0.739 | 0.159 | 0.172 | 0.583 | 0.653 | 0.84 | 0.247 | 0.194 | 0.871 | 0.515 | 0.683 | 0.142 | 0.215
HCC-827 | 1.07 | 1.09 | 1.02 | 1.09 | 0.965 | 0.836 | 0.658 | 0.61 | 0.247 | 0.178 | 0.993 | 0.591 | 0.568 | 0.238 | 0.144 | 0.242 | 0.283 | 0.398 | 0.182 | 0.166
Calu-6 | 1.18 | 0.949 | 1.1 | 1.2 | 1.04 | 0.677 | 0.426 | 0.197 | 0.0922 | 0.0977 | 0.699 | 0.322 | 0.209 | 0.0838 | 0.0789 | 0.868 | 0.6 | 0.211 | 0.122 | 0.129
NCI-H2009 | 1.3 | 0.951 | 0.992 | 1.16 | 1.09 | 0.859 | 0.544 | 0.242 | 0.0917 | 0.0613 | 1.02 | 0.494 | 0.344 | 0.193 | 0.104 | 0.437 | 0.261 | 0.237 | 0.087 | 0.111
NCI-H322M | 1.12 | 1.26 | 1.27 | 1.25 | 1.26 | 0.85 | 0.779 | 0.834 | 0.262 | 0.399 | 1.12 | 1.22 | 0.801 | 0.284 | 0.357 | 0.796 | 1.01 | 1.19 | 0.301 | 0.285
NCI-H23 | 1.13 | 0.96 | 0.922 | 1.02 | 0.95 | 0.579 | 0.481 | 0.301 | 0.122 | 0.139 | 0.968 | 0.839 | 0.767 | 0.285 | 0.184 | 0.282 | 0.232 | 0.202 | 0.125 | 0.169
NCI-H358 |  |  |  |  |  | 0.69 | 0.506 | 0.285 | 0.168 | 0.156 | 0.781 | 0.694 | 0.397 | 0.0949 | 0.094 | 0.585 | 0.654 | 0.345 | 0.25 | 0.236
NCI-H1944 |  |  |  |  |  | 1.06 | 0.842 | 0.649 | 0.179 | 0.167 | 0.771 | 0.58 | 0.301 | 0.182 | 0.161 | 0.834 | 0.919 | 0.636 | 0.164 | 0.17
LCLC-103H | 1.23 | 0.995 | 0.984 | 1.13 | 1.03 | 1.13 | 1.09 | 0.713 | 0.289 | 0.321 | 0.85 | 0.896 | 0.861 | 0.175 | 0.15 |  |  |  |  | 
NCI-H1792 | 0.973 | 1.02 | 0.991 | 0.91 | 0.948 | 0.961 | 0.906 | 0.834 | 0.69 | 0.346 |  |  |  |  |  | 0.806 | 0.599 | 0.484 | 0.182 | 0.175
HCC-44 | 0.857 | 0.972 | 0.876 | 0.77 | 0.871 | 0.65 | 0.527 | 0.189 | 0.168 | 0.155 |  |  |  |  |  | 0.657 | 0.249 | 0.159 | 0.142 | 0.145
NCI-H1623 |  |  |  |  |  |  |  |  |  |  | 0.704 | 0.536 | 0.468 | 0.289 | 0.294 |  |  |  |  | 
SK-MES-1 |  |  |  |  |  | 1.02 | 0.842 | 0.702 | 0.228 | 0.22 | 1.11 | 1.11 | 0.646 | 0.213 | 0.239 | 0.534 | 0.722 | 0.486 | 0.281 | 0.212
NCI-H2170 |  |  |  |  |  | 1.2 | 0.599 | 0.507 | 0.16 | 0.185 | 1.02 | 0.277 | 0.28 | 0.199 | 0.227 | 0.258 | 0.301 | 0.25 | 0.208 | 0.228
LK-2 |  |  |  |  |  | 0.222 | 0.319 | 0.321 | 0.27 | 0.236 | 1.35 | 0.676 | 0.621 | 0.265 | 0.222 | 0.521 | 0.656 | 0.638 | 0.272 | 0.257
NCI-H1395 |  |  |  |  |  |  |  |  |  |  | 0.951 | 0.818 | 0.538 | 0.41 | 0.362 | 0.793 | 0.986 | 0.5 | 0.39 | 0.351
